According to patent publication US12275685B2, “Oligo-benzamide analogs and their use in cancer treatment” (Board of Regents, The University of Texas System, priority 2018, dated 2025):
Where two headings read alike, the source gives them in different places.

Experiments:
[1] = system: ES2 and SKOV3 ovarian cancer cells; assay: Cell cycle arrest; format: cell-based; conditions: S phase
[2] = system: OCa cells; assay: MTT assay in OCa cells; format: cell-based
Experimental: (§1) FIGS. 12A-12D show the effect of TK208 against ovarian cancer cell lines ES2 (FIGS. 12A & 12B) and SKOV3 (FIGS. 12C & 12D).
(§2) FIGS. 42A-D: OCa cells were treated with ERX-11 (FIG. 42A) or ERX-208 (FIG. 42B). Primary OCa cells derived from ascites were treated with ERX-208 for 72 h (FIG. 42C) and cell viability by MTT assays. (FIG. 42D) Effect of ERX-208 on viability of IOSE cells was measured using MTT assays and TOV21G was used as +ve control.
(§3) ERX-208. […] Functionally, ERX-208 causes growth inhibition of OCa cells, as noted by MTT assays using five established OCa cells (ES2, SKOV3, A2780, TOV21G, TOV112D) and five primary OCa cells derived from HGSOC patient ascites (AS21, AS23, AS25, AS28, AS29) (FIGS. 42B-C). […] The inventor noted an IC50 of ˜50-100 nM for ERX-208 both for inducing ERS and in reducing the growth of OCa cells.

[3] = system: ES2 CDX tumors; assay: ES2 CDX tumors; format: in vivo, nude mice; conditions: 15 days
Experimental: FIG. 47: ES2/GFP/LUC cells were injected i.p. and tumors established. Mice (n=5) were treated with vehicle or ERX-208 (10 mg/kg/day/i.p). Tumor volume, tumor weight, number of tumor nodules are shown. **p<0.01,****p<0.0001.
(§4) ERX-208 suppressed growth of ES2 CDX tumors. ES2 cells stably labelled with GFP/LUC reporter (2×10^5) were injected i.p. into nude mice. Following establishment of tumors, mice (n=5/group) were randomized and treated for 5 days/week with either 10 mg/kg/ip of ERX-208 or vehicle. […] ERX-208 is effective in reducing growth of HGSOC PDX tumors. Following establishment of PDX tumors, NSG mice (n=6/group) were randomized and treated for 5 days/week with either 10 mg/kg/ip of ERX-208 or vehicle.

[4] = system: therapy resistant HGSOC PDX; assay: Therapy resistant HGSOC PDX model; format: in vivo, mice; conditions: 10 mg/kg/day/i.p
Experimental: (§5) FIGS. 49A-F: (FIGS. 49A-B) Effect of ERX-208 on chemotherapy resistant OCa cells was measured by MTT and apoptosis assay. (FIGS. 49C-F) Platinum-resistant PDX tumors were treated with vehicle or ERX-208 (10 mg/kg/day/i.p). Tumor volume (FIG. 49C), weights (FIG. 49D) tumors picture (FIG. 49E), bodyweights (FIG. 49F) are shown. ** P<0.01, ***p<0.001 ****p<0.0001.
(§6) ERX-208 is effective in reducing growth of chemotherapy resistant OCa. OCa initially responds to chemotherapy; however, majority will develop chemotherapy resistance. […] The inventors conducted a proof of principle study using a therapy resistant HGSOC PDX model received from the UTHealth OBGYN PDX core. ERX-208 treatment resulted ˜60% reduction in tumor volume (FIGS. 49C-F).

[5] = system: ovarian tumor; assay: Ovarian xenograft and PDX models of TK208; format: in vivo, mouse
Experimental: FIGS. 33A-H. FIGS. 33A-D show ovarian cancer xenografts (ES2) treated with vehicle or TK208 (ERX-208). Tumor volume (FIG. 33A), body weight (FIG. 33B) distribution of tumor weights at necropsy (FIG. 33C) and nodules (FIG. 33D) were graphed. FIGS. 33E-H show ovarian PDX tumors were treated with vehicle or TK208 (ERX-208). Tumor volume (FIG. 33E), distribution of tumor weights at necropsy (FIG. 33F) and tumor images (FIG. 33G) and body weight (FIG. 33H) were graphed.
The inventors have tested the in vivo activity of TK208 (ERX-208) using both ovarian xenograft and PDX models.

[6] = system: ES2 and SKOV3 ovarian cancer cells; assay: Colony formation assay; format: cell-based
Experimental: FIG. 43: ES2 and SKOV3 cells were treated with ERX-208 and its effect on cell survival was measured using colony formation assays. ****p<0.0001.
as §3

[7] = system: normal ovarian surface epithelial cells (IOSE); assay: MTT assay in IOSE cells; format: cell-based
Experimental: as §2, §3

[8] = system: OCa cells; assay: Caspase-Glo 3/7 apoptosis assay; format: cell-based
Experimental: as §1
FIG. 45: ERX-208 effect on apoptosis of OCa cells was measured using Caspase-Glo® 3/7 Assays. ****p<0.0001.
as §3

[9] = system: triple-negative breast cancer cells (TNBC); assay: Growth inhibition of TNBC cells; format: cell-based
Text: (§7) FIGS. 10A & 10B show effects of TK208 against cancer cells.
TNBC is difficult to be treated and currently there are no good drugs available in the market.
(§8) In addition, another tris-benzmaide compound TK208 was synthesized and tested against breast cancer and ovarian cancer cell lines (FIGS. 10-15). […] These compounds (e.g., TK41, TK208, TK308 (FIG. 21), TK309 (FIG. 22), TK314, TK315) are extremely potent compounds that inhibit tumor growth and kill breast and ovarian cancer cells and as such, they are superb therapeutic candidates for such diseases.

[10] = system: OCa cells; assay: ER stress (ERS)/UPR induction in OCa cells, RT-PCR and western; format: cell-based
Experimental: FIG. 40: Time course of induction of sXBP1 and CHOP mRNA in 4 OCa cell lines—ES2, SKOV3, OVCAR3 and OVCAR4 by ERX-208. Following treatment of OCa cell lines with 100 nM ERX-208, cells were harvested at various time points and lysates subjected to RT-PCR for both CHOP and sXBP1.
FIG. 41: OCa cells were treated with ERX-208 for 16 h and the status of UPR proteins were determined using western blotting.
as §3

[11] = system: HGSOC PDX tumors; assay: HGSOC PDX tumors; format: in vivo, NSG mice; conditions: 21 days
Experimental: FIGS. 48A-F: OCa PDX (n=6) tumors were established in the flanks of NSG mice. When the tumors reached 200 mm^3, treatment with vehicle or 10 mg/kg/day/i.p. ERX-208 was initiated. (FIG. 48A) Tumor volume, (FIG. 48B) tumor weight, (FIG. 48C) tumors picture, and
(FIG. 48D) body weight is shown. (FIGS. 48E-F) IHC analysis of GRP 78 as a marker of ER stress *p<0.05; **p<0.01, ****p<0.0001.
as §4

[12] = system: ovarian cancer cells; assay: Growth inhibition of ovarian cancer cells; format: cell-based
Text: as §7, §8

[13] = system: carboplatin resistant OCa cells; assay: Chemotherapy resistant OCa cells, MTT and apoptosis assay; format: cell-based
Experimental: as §5, §6

[14] = system: ES2 and SKOV3 ovarian cancer cells; assay: Matrigel invasion chamber assay; format: cell-based
Experimental: FIG. 44: ES2 and SKOV3 cells were treated with ERX-208 and its effect on invasion was measured using Matrigel invasion chamber assays. ****p<0.0001.
as §3

Q: For CC(C)COc1cc(C(=O)Nc2ccc(C(=O)N[C@H]3CC[C@H](C(=O)Nc4cnc5ccccc5c4)CC3)cc2OCC(C)C)ccc1NC(=O)c1ccc([N+](=O)[O-])c(OCCO)c1 [TK208], which growth arrest [1] is on record?
A: promotes growth arrest

Q: And the “activity against OCa cells / cell viability” value [2]?
A: reduces cell viability

Q: What about the IC50 ([2]; read-out: IC50 in reducing the growth of OCa cells) of the same molecule?
A: 0.05 to 0.1 µM

Q: And the “reduction of tumor volume” value ([3]; 10 mg/kg/ip 5 days/week, Xenogen-IVIS)?
A: ~60%

Q: And the body weight ([3]; 10 mg/kg/ip)?
A: no significant change in body weight

Q: And the “reduction in tumor nodules” value ([3]; 10 mg/kg/ip)?
A: ~50%

Q: And the “reduction in tumor weight” value ([3]; 10 mg/kg/ip)?
A: ~50%

Q: What about the “reduction in tumor volume” value [4] of the same molecule?
A: ~60%

Q: What about the mouse body weight ([5]; mouse, in vivo) of the same molecule?
A: no effect on mouse body weight

Q: And the “reduction of ovarian tumor volume” value ([5]; xenograft and PDX models)?
A: good efficacy

Q: And the colony formation [6]?
A: reduces colony formation

Q: And the colony formation ([6]; listed as ERX-208)?
A: reduced colony formation

Q: What about the “activity in IOSE” value [7] of the same molecule?
A: limited activity

Q: What about the apoptosis [8] of the same molecule?
A: promotes apoptosis

Q: And the IC50 [9]?
A: 0.01 to 0.1 µM

Q: What about the “induction of CHOP mRNA” value ([10]; 100 nM, within 24 h) of the same molecule?
A: > 15 fold

Q: What about the “induction of sXBP1 mRNA” value ([10]; 100 nM, within 24 h) of the same molecule?
A: > 10 fold

Q: And the IC50 ([10]; OCa cells, read-out: IC50 for inducing ERS)?
A: 0.05 to 0.1 µM

Q: What about the “induction of UPR components at the protein level” value ([10]; multiple OCa cell lines) of the same molecule?
A: induce classic UPR components peIF2a, CHOP and LC3B

Q: And the “reduction of tumor volume” value ([11]; 10 mg/kg/ip 5 days/week)?
A: ~68%

Q: And the body weight ([11]; 10 mg/kg/ip)?
A: no significant changes in body weight

Q: What about the “reduction in tumor weight” value ([11]; 10 mg/kg/ip) of the same molecule?
A: 60%

Q: And the IC50 [12]?
A: 0.01 to 0.1 µM

Q: What about the “apoptosis of carboplatin resistant OCa cells” value [13] of the same molecule?
A: promoted apoptosis

Q: And the “viability of carboplatin resistant OCa cells” value [13]?
A: significantly reduced viability

Q: What about the invasion [14] of the same molecule?
A: reduces invasion

Q: What about the invasion ([14]; listed as ERX-208) of the same molecule?
A: reduced
